Measurements taken from patent US20260193293A1, “PEPTIDES CAPABLE OF INHIBITING PROTEIN-PROTEIN INTERACTIONS AT GABAB1A SUBUNIT AND USES THEREOF” (UNIVERSITY OF COPENHAGEN, priority 2022, published 2026).
Where two headings read alike, the source gives them in different places. Each block holds one molecule with its values, some of them ahead of it. Non-standard residues stand in square brackets, D forms with d. Residues, ends and D or L forms follow the SMILES beside them. 3Pal = N[C@@H](Cc1cccnc1)C(=O)O; Sar = CNCC(=O)O

Target: Sushi domains (SD1/2) protein
Assay: Fluorescence polarization (FP) competition assay with AJAP-1probe, calculated Ki
Format: binding
How it was run: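 Competition against 25 nM TAMRA-labelled peptide probe binding SD1/2, in PBS pH 7.4 with 1% BSA at rt, read at 530/580 nm. IC50 from sigmoidal dose-response fits, at least triplicate; Ki calculated from IC50 using probe Kd from saturation binding.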

[1] = Table 11, deep mutational scanning validation variants of AJAP-1WT, read-out: Ki (nM) mean ± SEM
[2] = Table 7, Ala-, D-amino acids and N-methylation scans of APPWT, read-out: Ki (nM) mean ± SEM
[3] = Table 5, elongation and truncation scan of AJAP-1 binding epitope, read-out: Ki (nM) mean ± SEM
[4] = Table 13, peptides for affinity maturation, read-out: Ki (nM) mean ± SEM
[5] = Table 6, elongation and truncation scan of PIANP binding epitope, read-out: Ki (nM) mean ± SEM
[6] = Table 4, truncation and elongation scans of APP epitope, read-out: Ki (nM) mean ± SEM
[7] = Table 8, Ala-, D-amino acids and N-methylation scans of AJAP-1WT, read-out: Ki (nM) mean ± SEM

SMILES: CC[C@H](C)[C@H](NC(=O)[C@H](Cc1ccccc1)NC(=O)[C@H](CCC(=O)O)NC(=O)[C@@H](NC(=O)[C@H](CCC(=O)O)NC(C)=O)[C@@H](C)O)C(=O)N[C@@H](C)C(=O)N[C@@H](Cc1c[nH]c2ccccc12)C(=O)NCC(=O)N1CCC[C@H]1C(=O)N[C@H](C(=O)N[C@@H](Cc1c[nH]cn1)C(=O)N[C@@H](CC(=O)O)C(=O)N[C@@H](CCC(=O)O)C(=O)N[C@@H](CC(=O)O)C(N)=O)[C@@H](C)O [ETEFIAWGPTHDED] (Ac-ETEFIAWGPTHDED-NH2)
- Ki [1]: 30 ± 1 nM

SMILES: CC(=O)N[C@@H](C)C(=O)N[C@@H](CC(=O)O)C(=O)N[C@@H](CC(=O)O)C(=O)N[C@@H](CO)C(=O)N[C@@H](CC(=O)O)C(=O)N[C@H](C(=O)N[C@@H](Cc1c[nH]c2ccccc12)C(=O)N[C@@H](Cc1c[nH]c2ccccc12)C(=O)NCC(=O)NCC(=O)N[C@@H](C)C(=O)N[C@@H](CC(=O)O)C(=O)N[C@H](C(=O)N[C@@H](CC(=O)O)C(N)=O)[C@@H](C)O)C(C)C (Ac-ADDSDVWWGGADTD-NH2)
- Ki [2]: 803 ± 5 nM

SMILES: CC[C@H](C)[C@H](NC(=O)[C@H](Cc1ccc(O)cc1)NC(=O)[C@H](CC(=O)O)NC(=O)[C@H](CC(=O)O)NC(=O)[C@H](CCC(=O)O)NC(C)=O)C(=O)N[C@@H](CC(=O)O)C(=O)N[C@@H](Cc1c[nH]c2ccccc12)C(=O)N[C@@H](Cc1ccc(O)cc1)C(=O)N[C@@H](CC(=O)O)C(=O)N[C@@H](CO)C(=O)N[C@@H](CC(=O)O)C(=O)N[C@@H](CC(=O)O)C(=O)N[C@@H](CC(=O)O)C(N)=O [Peptide 18] (Ac-EDDYIDWYDSDDD-NH2)
- Ki (Table 1, affinity maturation, mean ± SEM, n ≥ 3, read-out: Ki): 4.6 ± 0.3 nM
- Ki [4]: 4.6 ± 0.3 nM

SMILES: CC[C@H](C)[C@H](NC(=O)[C@H](C)NC(=O)[C@H](Cc1c[nH]c2ccccc12)NC(=O)[C@@H]1CCCN1C(=O)[C@H](Cc1ccc(O)cc1)NC(=O)[C@H](CCC(N)=O)NC(C)=O)C(=O)N[C@H](C(=O)N[C@@H](Cc1c[nH]c2ccccc12)C(=O)NCC(=O)N1CCC[C@H]1C(=O)N[C@H](C(=O)N[C@H](C(=O)N[C@@H](CO)C(=O)N[C@@H](CCCNC(=N)N)C(=O)N[C@@H](CCC(=O)O)C(=O)N[C@@H](CC(=O)O)C(=O)NCC(N)=O)C(C)C)[C@@H](C)O)C(C)C (Ac-QYPWAIVWGPTVSREDG-NH2)
- Ki [5]: 650 ± 9 nM

SMILES: CC[C@H](C)[C@H](NC(=O)[C@H](Cc1ccccc1)NC(=O)[C@H](CCC(=O)O)NC(=O)[C@@H](NC(=O)[C@H](CCC(=O)O)NC(C)=O)[C@@H](C)O)C(=O)N[C@@H](C)C(=O)N[C@@H](Cc1c[nH]c2ccccc12)C(=O)NCC(=O)N1CCC[C@H]1C(=O)N[C@H](C(=O)NCC(=O)N[C@@H](CC(=O)O)C(=O)N[C@@H](CCC(=O)O)C(=O)N[C@@H](Cc1ccccc1)C(N)=O)[C@@H](C)O (Ac-ETEFIAWGPTGDEF-NH2)
- Ki [1]: 48 ± 1 nM

SMILES: CC(=O)N[C@@H](CCC(=O)O)C(=O)N[C@@H](CC(=O)O)C(=O)N[C@@H](CC(=O)O)C(=O)N[C@@H](CO)C(=O)N[C@@H](CC(=O)O)C(=O)N[C@H](C(=O)N[C@@H](Cc1c[nH]c2ccccc12)C(=O)N[C@@H](Cc1c[nH]c2ccccc12)C(=O)NCC(=O)NCC(=O)N[C@@H](C)C(=O)N[C@@H](CC(=O)O)C(=O)N[C@@H](CCC(=O)O)C(=O)N[C@@H](CC(=O)O)C(N)=O)C(C)C [EDDSDVWWGGADED] (Ac-EDDSDVWWGGADED-NH2)
- Ki (Table 10, deep mutational scanning validation variants of APPWT, read-out: Ki (nM) mean ± SEM): 337 ± 10 nM

SMILES: CC(=O)N[C@@H](CO)C(=O)N[C@@H](C)C(=O)N[C@@H](CC(=O)O)C(=O)N[C@@H](C)C(=O)N[C@@H](CCC(=O)O)C(=O)N[C@@H](CCC(=O)O)C(=O)N[C@@H](CC(=O)O)C(=O)N[C@@H](CC(=O)O)C(=O)N[C@@H](CO)C(=O)N[C@@H](CC(=O)O)C(=O)N[C@H](C(=O)N[C@@H](Cc1c[nH]c2ccccc12)C(=O)N[C@@H](Cc1c[nH]c2ccccc12)C(=O)NCC(=O)NCC(=O)N[C@@H](C)C(=O)N[C@@H](CC(=O)O)C(=O)N[C@H](C(=O)N[C@@H](CC(=O)O)C(=O)N[C@@H](Cc1ccc(O)cc1)C(=O)N[C@@H](C)C(=O)N[C@@H](CC(=O)O)C(N)=O)[C@@H](C)O)C(C)C (Ac-SADAEEDDSDVWWGGADTDYAD-NH2)
- Ki [6]: 284 ± 5 nM

SMILES: CC(=O)N[C@@H](CCC(=O)O)C(=O)N[C@@H](CC(=O)O)C(=O)N[C@@H](CC(=O)O)C(=O)N[C@@H](CO)C(=O)N[C@@H](Cc1cccnc1)C(=O)N[C@H](C(=O)N[C@@H](Cc1c[nH]c2ccccc12)C(=O)N[C@@H](Cc1c[nH]c2ccccc12)C(=O)NCC(=O)NCC(=O)N[C@@H](C)C(=O)N[C@@H](CC(=O)O)C(=O)N[C@H](C(=O)N[C@@H](CC(=O)O)C(N)=O)[C@@H](C)O)C(C)C (Ac-EDDS[3Pal]VWWGGADTD-NH2)
- Ki (Table 16, ncAAs incorporated peptides, read-out: Ki (nM) mean ± SEM): 373 ± 7 nM

SMILES: CC(=O)N[C@@H](CO)C(=O)N[C@@H](CC(=O)O)C(=O)N[C@H](C(=O)N[C@@H](Cc1c[nH]c2ccccc12)C(=O)N[C@@H](Cc1c[nH]c2ccccc12)C(=O)NCC(=O)NCC(=O)N[C@@H](C)C(=O)N[C@@H](CC(=O)O)C(=O)N[C@H](C(=O)N[C@@H](CC(=O)O)C(=O)N[C@@H](Cc1ccc(O)cc1)C(=O)N[C@@H](C)C(=O)N[C@@H](CC(=O)O)C(N)=O)[C@@H](C)O)C(C)C (Ac-SDVWWGGADTDYAD-NH2)
- Ki [6]: 2950 ± 82 nM

SMILES: CC[C@H](C)[C@H](NC(=O)[C@H](Cc1ccccc1)NC(=O)[C@H](CCC(=O)O)NC(=O)[C@@H](NC(=O)[C@H](CCC(=O)O)NC(C)=O)[C@@H](C)O)C(=O)N[C@@H](C)C(=O)N[C@@H](Cc1c[nH]c2ccccc12)C(=O)NCC(=O)N1CCC[C@H]1C(=O)N[C@H](C(=O)N(C)CC(=O)N[C@@H](CC(=O)O)C(=O)N[C@@H](CCC(=O)O)C(=O)N[C@@H](CC(=O)O)C(N)=O)[C@@H](C)O (Ac-ETEFIAWGPT[Sar]DED-NH2)
- Ki [7]: 132 ± 5 nM

SMILES: CC[C@H](C)[C@H](NC(=O)[C@H](Cc1ccccc1)NC(=O)[C@H](CCC(=O)O)NC(=O)[C@@H](NC(=O)[C@H](CCC(=O)O)NC(C)=O)[C@@H](C)O)C(=O)N[C@@H](Cc1c[nH]cn1)C(=O)N[C@@H](Cc1c[nH]c2ccccc12)C(=O)NCC(=O)N1CCC[C@H]1C(=O)N[C@H](C(=O)NCC(=O)N[C@@H](CC(=O)O)C(=O)N[C@@H](CCC(=O)O)C(=O)N[C@@H](CC(=O)O)C(N)=O)[C@@H](C)O [ETEFIHWGPTGDED] (Ac-ETEFIHWGPTGDED-NH2)
- Ki [1]: 24 ± 1 nM

The next lines start with the values.

- Ki [1]: 39 ± 2 nM
SMILES: CC[C@H](C)[C@H](NC(=O)[C@H](Cc1ccccc1)NC(=O)[C@H](CCC(=O)O)NC(=O)[C@@H](NC(=O)[C@H](CCC(=O)O)NC(C)=O)[C@@H](C)O)C(=O)N[C@@H](C)C(=O)N[C@@H](Cc1c[nH]c2ccccc12)C(=O)NCC(=O)N1CCC[C@H]1C(=O)N[C@H](C(=O)NCC(=O)N[C@@H](CC(=O)O)C(=O)N[C@@H](Cc1c[nH]cn1)C(=O)N[C@@H](CC(=O)O)C(N)=O)[C@@H](C)O

- Ki [2]: 653 ± 25 nM
SMILES: CC(=O)N[C@@H](CCC(=O)O)C(=O)N[C@@H](CC(=O)O)C(=O)N[C@@H](CC(=O)O)C(=O)N[C@@H](CO)C(=O)N[C@@H](CC(=O)O)C(=O)N[C@H](C(=O)N[C@@H](Cc1c[nH]c2ccccc12)C(=O)N[C@@H](Cc1c[nH]c2ccccc12)C(=O)NCC(=O)NCC(=O)N[C@@H](C)C(=O)N[C@@H](C)C(=O)N[C@H](C(=O)N[C@@H](CC(=O)O)C(N)=O)[C@@H](C)O)C(C)C (Ac-EDDSDVWWGGAATD-NH2)

- Ki [3]: 118 ± 1 nM
SMILES: CC[C@H](C)[C@H](NC(=O)[C@H](Cc1ccccc1)NC(C)=O)C(=O)N[C@@H](C)C(=O)N[C@@H](Cc1c[nH]c2ccccc12)C(=O)NCC(=O)N1CCC[C@H]1C(=O)N[C@H](C(=O)NCC(=O)N[C@@H](CC(=O)O)C(=O)N[C@@H](CCC(=O)O)C(=O)N[C@@H](CC(=O)O)C(N)=O)[C@@H](C)O [FIAWGPTGDED] (Ac-FIAWGPTGDED-NH2)

- Ki [5]: 579 ± 21 nM
SMILES: CC[C@H](C)[C@H](NC(=O)[C@H](C)NC(=O)[C@H](Cc1c[nH]c2ccccc12)NC(=O)[C@@H]1CCCN1C(C)=O)C(=O)N[C@H](C(=O)N[C@@H](Cc1c[nH]c2ccccc12)C(=O)NCC(N)=O)C(C)C [PWAIVWG] (Ac-PWAIVWG-NH2)

- Ki [3]: 102 ± 4 nM
SMILES: CC[C@H](C)[C@H](NC(=O)[C@H](Cc1ccccc1)NC(=O)[C@H](CCC(=O)O)NC(=O)[C@@H](NC(C)=O)[C@@H](C)O)C(=O)N[C@@H](C)C(=O)N[C@@H](Cc1c[nH]c2ccccc12)C(=O)NCC(=O)N1CCC[C@H]1C(=O)N[C@H](C(=O)NCC(=O)N[C@@H](CC(=O)O)C(=O)N[C@@H](CCC(=O)O)C(=O)N[C@@H](CC(=O)O)C(N)=O)[C@@H](C)O [TEFIAWGPTGDED] (Ac-TEFIAWGPTGDED-NH2)

- Ki [6]: > 62500 nM
SMILES: CC(=O)N[C@@H](Cc1c[nH]c2ccccc12)C(=O)N[C@@H](Cc1c[nH]c2ccccc12)C(=O)NCC(=O)NCC(=O)N[C@@H](C)C(=O)N[C@@H](CC(=O)O)C(=O)N[C@H](C(=O)N[C@@H](CC(=O)O)C(=O)N[C@@H](Cc1ccc(O)cc1)C(=O)N[C@@H](C)C(=O)N[C@@H](CC(=O)O)C(N)=O)[C@@H](C)O (Ac-WWGGADTDYAD-NH2)

- Ki [7]: 53 ± 2 nM
SMILES: CC[C@H](C)[C@H](NC(=O)[C@H](Cc1ccccc1)NC(=O)[C@H](CCC(=O)O)NC(=O)[C@@H](NC(=O)[C@H](C)NC(C)=O)[C@@H](C)O)C(=O)N[C@@H](C)C(=O)N[C@@H](Cc1c[nH]c2ccccc12)C(=O)NCC(=O)N1CCC[C@H]1C(=O)N[C@H](C(=O)NCC(=O)N[C@@H](CC(=O)O)C(=O)N[C@@H](CCC(=O)O)C(=O)N[C@@H](CC(=O)O)C(N)=O)[C@@H](C)O [ATEFIAWGPTGDED] (Ac-ATEFIAWGPTGDED-NH2)

- Ki (Table 9, Ala-, D-amino acids and N-methylation scans of PIANPWT, read-out: Ki (nM) mean ± SEM): 525 ± 22 nM
- Ki [4]: 525 ± 22 nM
SMILES: CC[C@H](C)[C@H](NC(=O)[C@H](C)NC(=O)[C@H](Cc1c[nH]c2ccccc12)NC(=O)[C@@H]1CCCN1C(C)=O)C(=O)N[C@H](C(=O)N[C@@H](Cc1c[nH]c2ccccc12)C(=O)NCC(=O)N(C)CC(=O)N[C@H](C(=O)N[C@H](C(=O)N[C@@H](CO)C(=O)N[C@@H](CCCNC(=N)N)C(=O)N[C@@H](CCC(=O)O)C(=O)N[C@@H](CC(=O)O)C(N)=O)C(C)C)[C@@H](C)O)C(C)C [PWAIVWG(N-Me-G)TVSRED] (Ac-PWAIVWG[Sar]TVSRED-NH2)
